Values quoted from earlier work as cited in patent US20240024490A1, “BIFUNCTIONAL MOLECULES FOR SELECTIVE MODIFICATION OF TARGET SUBSTRATES” (The Broad Institute, Inc., priority 2021, published 2024).
Read-outs that look alike come from different tables or passages of the source.

Legend:
[1] = tested on: Molt-4 (T cell acute lymphoblastic leukemia) xenografts; settings: SCID mice; cited from earlier work
SEM cells = settings: cited from earlier work
Z138 = settings: read-out: IC50, proliferation; cited from earlier work
Nalm6 = settings: cited from earlier work
ICN13 = settings: cited from earlier work
OP-1 = settings: cited from earlier work
LAX7R = settings: cited from earlier work
REH = settings: cited from earlier work
RS4 = settings: cited from earlier work
MS751 cervical carcinoma = settings: read-out: IC50, proliferation; cited from earlier work
SupB15 = settings: cited from earlier work
697 cells = settings: cited from earlier work
KOPN-8 = settings: cited from earlier work
LAX2 = settings: cited from earlier work
p-ERK1/2 = settings: cited from earlier work
[2] = in vivo; cited from earlier work
NCI-H441 cells [3] = settings: read-out: Invasion IC50; cited from earlier work
c-Met = target: T1, c-Met (Homo sapiens, UniProt P08581); settings: cited from earlier work
T1 construct: host or cells: NCI-H441 (as the sentence says)

NCI-H441 cells [4] = settings: read-out: phosphor-MET IC50; cited from earlier work
NCI-H441 cells [5] = settings: read-out: viability IC50; cited from earlier work
[6] = tested on: CD138-purified multiple myeloma (MM) cells from patients; settings: cited from earlier work
KU-19-19 (bladder) = settings: cited from earlier work
MCF-7 (breast) = settings: cited from earlier work
BT-474 (breast) = settings: cited from earlier work
FGFR2 = settings: read-out: IC50, FGF1-induced ERK phosphorylation via FGFR2; cited from earlier work
PTK2 = settings: prostate cancer cells; read-out: IC50, autophosphorylation of PTK2; cited from earlier work
[7] = tested on: LPS-stimulated THP-1 cells; settings: read-out: IC50, block of TNFα release; cited from earlier work
[8] = cited from earlier work
Crk-L = settings: cited from earlier work
[9] = tested on: screening panel of kinases; settings: 1000 nM EAI045; cited from earlier work
[10] = tested on: EGFR(L858R/T790M/C797S) tumors; settings: in vivo; cited from earlier work
RIPK-1 = RIPK-1 (Homo sapiens, UniProt Q13546); settings: cited from earlier work
C26 = settings: cited from earlier work
[11] = cited from earlier work; remark: listed apart in the source

T1 sequence (P08581 25-1390): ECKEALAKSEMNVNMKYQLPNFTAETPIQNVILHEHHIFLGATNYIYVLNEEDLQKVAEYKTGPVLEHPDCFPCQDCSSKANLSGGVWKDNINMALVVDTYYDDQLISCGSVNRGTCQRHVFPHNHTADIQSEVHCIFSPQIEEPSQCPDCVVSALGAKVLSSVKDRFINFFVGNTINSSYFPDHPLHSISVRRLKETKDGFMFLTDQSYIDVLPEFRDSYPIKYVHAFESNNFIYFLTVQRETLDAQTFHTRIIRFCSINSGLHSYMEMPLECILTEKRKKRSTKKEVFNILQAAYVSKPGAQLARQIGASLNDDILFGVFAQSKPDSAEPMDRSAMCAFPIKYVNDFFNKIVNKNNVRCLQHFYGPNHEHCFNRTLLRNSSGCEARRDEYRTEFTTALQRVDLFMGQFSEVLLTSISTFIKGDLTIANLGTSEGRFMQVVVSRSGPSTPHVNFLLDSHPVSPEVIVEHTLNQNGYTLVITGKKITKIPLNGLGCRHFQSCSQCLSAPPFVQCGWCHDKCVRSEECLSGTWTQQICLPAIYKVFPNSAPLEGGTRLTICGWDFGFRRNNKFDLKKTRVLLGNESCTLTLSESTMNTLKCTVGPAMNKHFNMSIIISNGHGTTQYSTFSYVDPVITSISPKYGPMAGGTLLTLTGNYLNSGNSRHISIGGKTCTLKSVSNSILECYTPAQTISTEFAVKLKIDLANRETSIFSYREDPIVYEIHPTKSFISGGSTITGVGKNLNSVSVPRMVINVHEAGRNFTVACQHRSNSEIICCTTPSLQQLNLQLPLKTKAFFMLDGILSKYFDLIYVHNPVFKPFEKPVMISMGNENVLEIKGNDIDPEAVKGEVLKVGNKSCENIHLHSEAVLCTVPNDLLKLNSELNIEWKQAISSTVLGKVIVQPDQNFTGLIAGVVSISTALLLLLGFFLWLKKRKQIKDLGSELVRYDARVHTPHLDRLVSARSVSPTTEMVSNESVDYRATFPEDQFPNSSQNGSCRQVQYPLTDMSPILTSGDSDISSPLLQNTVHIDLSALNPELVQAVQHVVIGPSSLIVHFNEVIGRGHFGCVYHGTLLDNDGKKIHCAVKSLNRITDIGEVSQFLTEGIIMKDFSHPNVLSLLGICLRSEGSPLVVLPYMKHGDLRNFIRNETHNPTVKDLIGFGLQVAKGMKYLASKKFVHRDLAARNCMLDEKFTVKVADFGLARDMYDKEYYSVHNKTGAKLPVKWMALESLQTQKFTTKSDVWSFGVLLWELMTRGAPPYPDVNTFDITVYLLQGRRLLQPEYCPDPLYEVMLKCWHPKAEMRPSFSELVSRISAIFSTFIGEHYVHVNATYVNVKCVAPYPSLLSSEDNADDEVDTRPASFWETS
RIPK-1, sequence (Q13546 whole entry, species assumed): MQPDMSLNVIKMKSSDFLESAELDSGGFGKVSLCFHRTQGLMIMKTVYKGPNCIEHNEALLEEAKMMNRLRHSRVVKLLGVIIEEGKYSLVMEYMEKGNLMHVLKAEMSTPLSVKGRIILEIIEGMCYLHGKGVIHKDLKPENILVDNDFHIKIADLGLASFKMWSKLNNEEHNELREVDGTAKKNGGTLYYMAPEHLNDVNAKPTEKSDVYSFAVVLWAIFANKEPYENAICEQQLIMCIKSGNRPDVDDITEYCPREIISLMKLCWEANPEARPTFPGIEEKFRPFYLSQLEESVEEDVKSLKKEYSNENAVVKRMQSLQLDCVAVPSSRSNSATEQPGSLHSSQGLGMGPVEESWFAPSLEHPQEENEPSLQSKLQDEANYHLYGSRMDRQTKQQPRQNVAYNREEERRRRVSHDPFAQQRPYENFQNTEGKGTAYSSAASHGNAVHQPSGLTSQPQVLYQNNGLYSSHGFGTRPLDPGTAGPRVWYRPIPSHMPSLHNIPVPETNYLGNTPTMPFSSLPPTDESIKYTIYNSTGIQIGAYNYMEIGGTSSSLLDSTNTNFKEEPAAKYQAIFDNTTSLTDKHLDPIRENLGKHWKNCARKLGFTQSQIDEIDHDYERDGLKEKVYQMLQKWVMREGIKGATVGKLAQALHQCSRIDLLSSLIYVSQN

In the case of `Nc1ccc(/C=C/C(=O)NCc2cc3cc(-c4ccc(C(=O)N5CCC(F)(F)CC5)cc4)cc(-c4ccc(F)cc4)c3o2)cn1` [KPT-9274], the effect on xenografts [1] is listed as “induces shrinkage”, the IC50 (SEM cells) is listed as over 10000 nM and the IC50 (Z138) is listed as under 100 nM. For the same compound, the IC50 (Nalm6) was 19 nM, the IC50 (ICN13) was 25.9 nM and the IC50 (OP-1) was 18 nM. The IC50 (LAX7R) was 32.7 nM, the IC50 (REH) was 14.3 nM and the IC50 (RS4) was 5.6 nM. For the same compound, the IC50 (MS751 cervical carcinoma) was under 100 nM, the IC50 (SupB15) was 22.6 nM and the IC50 (697 cells) was 16.7 nM. For the same compound, the IC50 (KOPN-8) was 2.4 nM and the IC50 (LAX2) was 19.4 nM.

In the case of `CC(=O)Nc1cccc(-n2c(=O)n(C3CC3)c(=O)c3c(Nc4ccc(I)cc4F)n(C)c(=O)c(C)c32)c1` [Trametinib, Trametnib], the “sustained suppression of p-ERK1/2” value (p-ERK1/2) is given as “more than 24 hours” and the “Absorption/distribution of an oral dose” value [2] is given as 72%.

In the case of `O=C1NC(=O)[C@@H](c2cn3c4c(cccc24)CCC3)[C@@H]1c1c[nH]c2ccccc12` [tivantinib], the IC50 (NCI-H441 cells [3]) is given as 80 nM, the pKi (c-Met) is given as 6.4 and the “selectivity for c-Met over other kinases tested” value (c-Met) is given as 10-100 time. For the same compound, the IC50 (c-Met; read-out: Enzyme IC50) was 50 nM, the IC50 (NCI-H441 cells [4]) was 100 nM and the IC50 (NCI-H441 cells [5]) was 100 nM.

For `O=C(NC[C@H](O)CO)c1ccncc1Nc1ccc(I)cc1F` [Pimasertib], the IC50 [6] is listed as 2 to 200 nM.

For `C=CC(=O)Nc1ccc2[nH]c(=O)n(C3CCN(Cc4ccc(-c5nc6cc[nH]c(=O)c6cc5-c5ccccc5)cc4)CC3)c2c1` [Borussertib], the EC50 (KU-19-19 (bladder)) is given as 7770 ± 641 nM, the EC50 (MCF-7 (breast)) is given as 277 ± 90 nM and the EC50 (BT-474 (breast)) is given as 373 ± 54 nM.

For `COc1c(C)c(C(=O)c2ccc(N)c(C(=O)O)c2)n2ccccc12` [SSR128129E], the IC50 (FGFR2) is listed as under 100 nM.

In the case of `CN1c2ccc(NCc3ccc(C(C)(C)C)cc3)cc2-c2c(cnn2C)S1(=O)=O` [compound 30], the IC50 (PTK2) is listed as 7100 nM.

In the case of `Cc1ccc(-n2nc(C(C)(C)C)cc2NC(=O)Nc2ccc(OCCN3CCOCC3)c3ccccc23)cc1` [Doramapimod], the IC50 [7] is given as 18 nM.

In the case of `N#CCCC(=O)NC1=NN(c2ccc(Cl)c(Cl)c2)CC1` [compound 32], the “In Vitro Clearance” value [8] is listed as under 0.01 mL/min/mg protein, the “Fold Increase phCRKE Vs Total Crk-L (normalised)” value (Crk-L; 40 min) is listed as 19x and the “Fold Increase phCRKE Vs Total Crk-L (normalised)” value (Crk-L; 180 min) is listed as 35x.

For `O=C(Nc1nccs1)C(c1cc(F)ccc1O)N1Cc2ccccc2C1=O` (stereo not shown) [EAI045], the “inhibition of any other kinases in screening panels” value [9] is listed as at most 20% and the “efficacy in xenograft models” value [10] is listed as “effective”.

For `CCC(C)(C)C(=O)N(O)Cc1ccccc1` [RIPA-56], the pIC50 (RIPK-1) is listed as 7.9.

In the case of `O=C(NOCC1CC1)c1ccc(F)c(F)c1Nc1ccc(I)cc1Cl` [24 (CI-1040), CI-1040], the IC50 (C26) is listed as 35 nM and the “Sol (pH 6.5)” value [11] is listed as under 1 μg/mL.
